How the values were obtained:
Cannabinoid receptor 1 = Cannabinoid receptor 1 (Rattus norvegicus, UniProt P20272); test: Displacement of [3H]CP-55940 from rat brain CB1 receptor
Cannabinoid receptor 2 = Cannabinoid receptor 2 (Mus musculus, UniProt P47936); test: Displacement of [3H]CP-55940 from mouse spleen CB2 receptor; format: tissue-based
[1] = Selectivity for rat CB1 receptor over mouse CB2 receptor

Cannabinoid receptor 1, sequence (P20272 whole entry): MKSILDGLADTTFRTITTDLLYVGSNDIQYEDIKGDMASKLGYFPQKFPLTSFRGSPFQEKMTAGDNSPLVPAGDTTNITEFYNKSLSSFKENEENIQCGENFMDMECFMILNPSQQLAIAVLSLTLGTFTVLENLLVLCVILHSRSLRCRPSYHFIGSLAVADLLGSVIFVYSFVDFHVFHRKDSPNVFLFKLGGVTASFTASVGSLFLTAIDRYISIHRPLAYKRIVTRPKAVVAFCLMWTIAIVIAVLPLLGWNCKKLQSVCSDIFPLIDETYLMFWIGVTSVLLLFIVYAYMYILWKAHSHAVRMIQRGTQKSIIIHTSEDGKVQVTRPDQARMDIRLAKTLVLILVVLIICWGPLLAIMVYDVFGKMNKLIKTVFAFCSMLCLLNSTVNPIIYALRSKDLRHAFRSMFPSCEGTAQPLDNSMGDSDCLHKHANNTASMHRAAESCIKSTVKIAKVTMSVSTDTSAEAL
Cannabinoid receptor 2, sequence (P47936 whole entry): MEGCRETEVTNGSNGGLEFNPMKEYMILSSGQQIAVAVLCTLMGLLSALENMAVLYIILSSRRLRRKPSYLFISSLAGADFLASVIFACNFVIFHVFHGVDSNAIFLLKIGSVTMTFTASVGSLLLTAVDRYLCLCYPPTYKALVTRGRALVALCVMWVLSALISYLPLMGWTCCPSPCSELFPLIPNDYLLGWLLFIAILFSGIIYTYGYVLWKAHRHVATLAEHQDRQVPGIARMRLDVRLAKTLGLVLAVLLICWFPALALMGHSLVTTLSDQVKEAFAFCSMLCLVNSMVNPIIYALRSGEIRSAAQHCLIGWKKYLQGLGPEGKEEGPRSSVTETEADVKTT

| SMILES | Ki (Cannabinoid receptor 1) [nM] | Ki (Cannabinoid receptor 2) [nM] | Ratio Ki [1] |
| --- | --- | --- | --- |
| C=C(C)[C@@H]1CCC(C)=C[C@H]1c1c(O)cc(C2(C#N)CCCCC2)cc1O | 319 | 111 | 2.9 |
| C=C(C)[C@@H]1CCC(C)=C[C@H]1c1c(O)cc(C2(C#N)CCCC2)cc1O | 255 | 105 | 2.4 |
| CC1=CC[C@@H]2[C@@H](C1)c1c(O)cc(-c3ccc(C)cc3)cc1OC2(C)C | 95.5 | 71.8 | 1.3 |
| CCCCCC#Cc1cc(O)c2c(c1)OC(C)(C)[C@@H]1CC=C(C)C[C@@H]21 | – | – | 0.2 |
| CC1=CC[C@@H]2[C@@H](C1)c1c(O)cc(C3(C#N)CCCC3)cc1OC2(C)C | 27.9 | 25.2 | 1.1 |
| CCc1ccc(-c2cc(O)c3c(c2)OC(C)(C)[C@@H]2CC=C(C)C[C@@H]32)cc1 | 119 | 51.7 | 2.3 |
| CCCCCc1cc(O)c2c(c1)OC(C)(C)[C@@H]1CC=C(C)C[C@@H]21 | – | – | 1.2 |
| CC1=CC[C@@H]2[C@@H](C1)c1c(O)cc(C3(C#N)CCCCC3)cc1OC2(C)C | 8.26 | 3.86 | 2.1 |
| C=C(C)[C@@H]1CCC(C)=C[C@H]1c1c(O)cc(-c2cccc3ccccc23)cc1O | 754 | 222 | 3.4 |
| CC1=CC[C@@H]2[C@@H](C1)c1c(O)cc(-c3cccc4ccccc34)cc1OC2(C)C | 11.7 | 9.39 | 1.2 |
| CC1=CC[C@@H]2[C@@H](C1)c1c(O)cc(C34CC5CC(CC(C5)C3)C4)cc1OC2(C)C | – | – | 0.1 |
| C=C(C)[C@@H]1CCC(C)=C[C@H]1c1c(O)cc(-c2ccc(C)cc2)cc1O | 638 | 374 | 1.7 |
| CCCc1ccc(-c2cc(O)c3c(c2)OC(C)(C)[C@@H]2CC=C(C)C[C@@H]32)cc1 | 57.8 | 108 | 0.5 |

From ChEMBL document CHEMBL1146054, “Structural modifications of the cannabinoid side chain towards C3-aryl and 1',1'-cycloalkyl-1'-cyano cannabinoids” (Bioorg Med Chem Lett, 2006)
